Patent publication US20070049564A1 (Wyeth, priority 2005, published 2007)
≈ marks a conversion by molar mass, not a printed value. Read-outs that look alike come from different tables or passages of the source.

Assays:
[1] = test system: E. faecalis GC 4555; assay: MIC, broth microdilution; conditions: for MIC: Enterococcus faecalis
[2] = test system: S. pyogenes GC 4563; assay: MIC, broth microdilution; conditions: for MIC: Streptococcus pyogenes
[3] = test system: E. coli GC 2234; assay: MIC, broth microdilution; conditions: Escherichia coli, GC2234, read-out: MINIMAL INHIBITORY CONCENTRATION MIC, pre-incubated in Water
[4] = test system: E. coli GC 1073; assay: MIC, broth microdilution; conditions: Escherichia coli, GC1073, read-out: MINIMAL INHIBITORY CONCENTRATION MIC, pre-incubated in Water
[5] = test system: S. pneumoniae+ GC 4465; assay: MIC, broth microdilution; conditions: for MIC: Streptococcus pneumoniae
[6] = test system: E. faecium GC 2243; assay: MIC, broth microdilution; conditions: for MIC: Enterococcus faecium
[7] = test system: S. epidermidis GC 4935; assay: MIC, broth microdilution; conditions: Staphylococcus epidermidis
[8] = test system: E. coli GC 6465; assay: MIC, broth microdilution; conditions: Escherichia coli, GC6465, read-out: MINIMAL INHIBITORY CONCENTRATION MIC, pre-incubated in Water
[9] = test system: c. albicans GC 3066; assay: MIC, broth microdilution
[10] = test system: E. coli GC 2236; assay: MIC, broth microdilution; conditions: Escherichia coli, GC2236, read-out: MINIMAL INHIBITORY CONCENTRATION MIC, pre-incubated in Water
[11] = test system: S. aureus GC 1131; assay: MIC, broth microdilution; conditions: Staphylococcus aureus
[12] = test system: E. coli GC 2272; assay: MIC, broth microdilution; conditions: Escherichia coli, GC2272, read-out: MINIMAL INHIBITORY CONCENTRATION MIC, pre-incubated in Water
[13] = test system: Staph.; assay: Range of MIC for Staph. strains, including MRSA; conditions: Staphylococcus aureus
[14] = test system: S. aureus GC 1079; assay: MIC, broth microdilution; conditions: for MIC: Staphylococcus aureus
[15] = test system: S. aureus GC 4536; assay: MIC, broth microdilution; conditions: for MIC: Staphylococcus aureus
[16] = test system: E. coli; assay: Range of MIC for E. coli strains; conditions: Escherichia coli
[17] = test system: S. aureus GC 6466; assay: MIC, broth microdilution; conditions: for MIC: Staphylococcus aureus
[18] = test system: E. coli GC 2233; assay: MIC, broth microdilution; conditions: Escherichia coli, GC2233, read-out: MINIMAL INHIBITORY CONCENTRATION MIC, pre-incubated in Water
[19] = test system: S. aureus GC 6469; assay: MIC, broth microdilution; conditions: for MIC: Staphylococcus aureus
[20] = test system: E. faecalis GC 2265; assay: MIC, broth microdilution; conditions: for MIC: Enterococcus faecalis

- MIC ([1]; GC4555, read-out: MINIMAL INHIBITORY CONCENTRATION MIC, pre-incubated in Mouse Serum): 2 µg/mL (≈ 2.64 µM)
- MIC ([1]; GC4555, read-out: MINIMAL INHIBITORY CONCENTRATION MIC, pre-incubated in Water): 4 µg/mL (≈ 5.28 µM)
- MINIMAL INHIBITORY CONCENTRATION MIC ([1]; pre-incubated in Mouse Serum): 4 UG/ML
- MIC ([2]; GC4563, read-out: MINIMAL INHIBITORY CONCENTRATION MIC, pre-incubated in Mouse Serum): 2 µg/mL (≈ 2.64 µM)
- MIC ([2]; GC4563, read-out: MINIMAL INHIBITORY CONCENTRATION MIC, pre-incubated in Water): 4 µg/mL (≈ 5.28 µM)
- MINIMAL INHIBITORY CONCENTRATION MIC ([2]; pre-incubated in Mouse Serum): 4 UG/ML
- MIC [3]: > 64 µg/mL
- MIC [4]: > 64 µg/mL
- MIC ([5]; read-out: MINIMAL INHIBITORY CONCENTRATION MIC, pre-incubated in Mouse Serum): 4 µg/mL (≈ 5.28 µM)
- MIC ([5]; read-out: MINIMAL INHIBITORY CONCENTRATION MIC, pre-incubated in Water): 8 µg/mL (≈ 10.6 µM)
- MINIMAL INHIBITORY CONCENTRATION MIC ([5]; pre-incubated in Mouse Serum): 8 UG/ML
- MIC ([6]; GC2243, read-out: MINIMAL INHIBITORY CONCENTRATION MIC, pre-incubated in Mouse Serum): 2 µg/mL (≈ 2.64 µM)
- MIC ([6]; GC2243, read-out: MINIMAL INHIBITORY CONCENTRATION MIC, pre-incubated in Water): 4 µg/mL (≈ 5.28 µM)
- MINIMAL INHIBITORY CONCENTRATION MIC ([6]; pre-incubated in Mouse Serum): 4 UG/ML
- MIC ([7]; GC4935, read-out: MINIMAL INHIBITORY CONCENTRATION MIC, pre-incubated in Mouse Serum): 4 µg/mL (≈ 5.28 µM)
- MIC ([7]; GC4935, read-out: MINIMAL INHIBITORY CONCENTRATION MIC, pre-incubated in Water): 8 µg/mL (≈ 10.6 µM)
- MIC [8]: > 64 µg/mL
- MIC ([9]; Candida albicans, GC3066, read-out: MINIMAL INHIBITORY CONCENTRATION MIC): > 64 µg/mL
- MINIMAL INHIBITORY CONCENTRATION MIC ([9]; pre-incubated in Mouse Serum): >64 UG/ML
- MIC [10]: > 64 µg/mL
- MIC ([11]; GC1131, read-out: MINIMAL INHIBITORY CONCENTRATION MIC, pre-incubated in Mouse Serum): 2 µg/mL (≈ 2.64 µM)
- MIC ([11]; GC1131, read-out: MINIMAL INHIBITORY CONCENTRATION MIC, pre-incubated in Water): 4 µg/mL (≈ 5.28 µM)
- MIC [12]: > 64 µg/mL
- MIC ([13]; MRSA, read-out: Range of MIC, Staph (Mouse Serum)): 2 to 4 µg/mL (≈ 2.64 to 5.28 µM)
- MIC ([13]; MRSA, read-out: Range of MIC, Staph (Water)): 4 to 8 µg/mL (≈ 5.28 to 10.6 µM)
- MIC ([13]; read-out: Minimum inhibitory concentration (MIC), Staph (Human Serum)): 2 to 4 µg/mL (≈ 2.64 to 5.28 µM)
- MIC ([13]; read-out: Minimum inhibitory concentration (MIC), Staph (Water)): 4 to 8 µg/mL (≈ 5.28 to 10.6 µM)
- MIC ([14]; GC1079, read-out: MINIMAL INHIBITORY CONCENTRATION MIC, pre-incubated in Mouse Serum): 2 µg/mL (≈ 2.64 µM)
- MIC ([14]; GC1079, read-out: MINIMAL INHIBITORY CONCENTRATION MIC, pre-incubated in Water): 4 µg/mL (≈ 5.28 µM)
- MINIMAL INHIBITORY CONCENTRATION MIC ([14]; pre-incubated in Mouse Serum): 4 UG/ML
- MIC ([15]; GC4536, read-out: MINIMAL INHIBITORY CONCENTRATION MIC, pre-incubated in Mouse Serum): 2 µg/mL (≈ 2.64 µM)
- MIC ([15]; GC4536, read-out: MINIMAL INHIBITORY CONCENTRATION MIC, pre-incubated in Water): 8 µg/mL (≈ 10.6 µM)
- MINIMAL INHIBITORY CONCENTRATION MIC ([15]; pre-incubated in Mouse Serum): 4 UG/ML
- MIC ([16]; 20 h, read-out: Range of MIC, E. coli (Mouse Serum)): 4 to 16 µg/mL (≈ 5.28 to 21.1 µM)
- MIC ([16]; read-out: Minimum inhibitory concentration (MIC), E. coli (Human Serum)): > 64 µg/mL
- MIC ([16]; read-out: Minimum inhibitory concentration (MIC), E. coli (water)): > 64 µg/mL
- MIC ([16]; read-out: Range of MIC, E. coli (Water)): > 64 µg/mL
- MIC ([17]; GC6466, read-out: MINIMAL INHIBITORY CONCENTRATION MIC, pre-incubated in Mouse Serum): 2 µg/mL (≈ 2.64 µM)
- MIC ([17]; GC6466, read-out: MINIMAL INHIBITORY CONCENTRATION MIC, pre-incubated in Water): 4 µg/mL (≈ 5.28 µM)
- MINIMAL INHIBITORY CONCENTRATION MIC ([17]; pre-incubated in Mouse Serum): 4 UG/ML
- MIC [18]: > 64 µg/mL
- MIC ([19]; GC6469, read-out: MINIMAL INHIBITORY CONCENTRATION MIC, pre-incubated in Mouse Serum): 2 µg/mL (≈ 2.64 µM)
- MIC ([19]; GC6469, read-out: MINIMAL INHIBITORY CONCENTRATION MIC, pre-incubated in Water): 4 µg/mL (≈ 5.28 µM)
- MINIMAL INHIBITORY CONCENTRATION MIC ([19]; pre-incubated in Mouse Serum): 4 UG/ML
- MIC ([20]; GC2265, read-out: MINIMAL INHIBITORY CONCENTRATION MIC, pre-incubated in Mouse Serum): 2 µg/mL (≈ 2.64 µM)
- MIC ([20]; GC2265, read-out: MINIMAL INHIBITORY CONCENTRATION MIC, pre-incubated in Water): 8 µg/mL (≈ 10.6 µM)
- MINIMAL INHIBITORY CONCENTRATION MIC ([20]; pre-incubated in Mouse Serum): 4 UG/ML
Structure (SMILES): CN(C)c1cc(NC(=O)CN(C(=O)OCOC(=O)CC(C)(C)C)C(C)(C)C)c(O)c2c1C[C@H]1C[C@H]3[C@H](N(C)C)C(O)=C(C(N)=O)C(=O)[C@@]3(O)C(O)=C1C2=O [Example 42, ({[(2-{[(5aR,6aS,7S,10aS)-9-(aminocarbonyl)-4,7-bis(dimethylamino)-1,8,10a,11-tetrahydroxy-10,12-dioxo-5,5a,6,6a,7,10,10a,12-octahydrotetracen-2-yl]amino}-2-oxoethyl)(tert-butyl)amino]carbonyl}oxy)methyl 3,3-dimethylbutanoate]
